Experimental findings from patent US6440995B1, “Quinolin-4-yl derivatives” (Hoffman-La Roche Inc., priority 1999, dated 2002) are described below.

SMILES strings stand for the structures. Where a name gives a salt, the structure may show the parent alone.

Test system in one data set: not given
Experiment: not given
Settings: not given
`Cc1ccc(-c2cc(NC[C@H](C)O)c3ccc(C)cc3n2)cc1.Cl` showed a melting point of 264 to 267 °C.

Compound `C[C@H](O)CNc1cc(-c2ccc3c(c2)CCO3)nc2ccccc12.Cl` yielded a melting point of 236 to 242 °C.

Compound `Cl.OCCNc1cc(-c2ccc(Cl)cc2)nc2ccccc12` gave a melting point of 262 to 264 °C.

The compound `COc1ccc(-c2cc(NCCO)c3ccc(C)cc3n2)cc1.Cl` returned a melting point of 233 to 238 °C.

Regarding `COc1cccc2c(NCCO)cc(-c3ccccc3)nc12.Cl`, the melting point lay in the range of 205 to 209 °C.

Compound `Cc1ccc(-c2cc(NCCO)c3ccc(C)cc3n2)cc1.Cl` yielded a melting point of 260 to 263 °C.

Compound `CCNCC(O)COc1cc(-c2ccccc2)nc2ccccc12.Cl` (stereo not shown) returned a melting point of 170 to 174 °C.

`CNCC(O)COc1cc(-c2ccc(C)cc2)nc2cc(C)ccc12` (racemic) gave a melting point of 146 to 150 °C.

`CNCC(O)COc1cc(-c2ccccc2)nc2cc(Cl)ccc12.Cl` (racemic): the melting point is 192 to 193 °C.

Regarding `CNCC(O)COc1cc(-c2ccsc2)nc2ccccc12.Cl` (racemic), the melting point is 236 to 238 °C.

Regarding `O=C(O)/C=C/C(=O)O.OCC(O)CNc1cc(/C=C/c2ccccc2)nc2ccccc12` (racemic), the melting point fell in the range of 220 to 222 °C.

`Cc1ccc(-c2cc(NCC(O)CO)c3ccccc3n2)cc1Cl.Cl` (racemic): the melting point was in the range of 230 to 231 °C.

The compound `Cl.Cl.NCC(O)CNc1cc(-c2ccc(Cl)cc2)nc2ccccc12` (racemic) gave a melting point of 283 to 287 °C.

Consider `Cl.OCC(O)CNc1cc(N2Cc3ccccc3C2)nc2ccccc12` (racemic), for which the melting point fell in the range of 295 to 301 °C.

On to `Cl.NCC(O)CNc1cc(-c2ccccc2)nc2ccccc12` (racemic), for which the melting point is 291 to 294 °C.

In turn, `COc1cccc2c(NCC(O)CO)cc(-c3ccccc3)nc12.Cl` (racemic) gave a melting point of 110 to 116 °C.

As to `Cl.OCC(O)CNc1cc(-c2cc3ccccc3o2)nc2ccccc12` (racemic), the melting point was 263 to 265 °C.

In the case of `Cc1cccc(-c2cc(NCC(O)CO)c3ccccc3n2)c1.Cl` (racemic), the melting point lay within 208 to 215 °C.

For `NCC(O)CNc1cc(-c2ccc(Cl)cc2)nc2ccccc12` (racemic), the melting point lay in the range of 283 to 287 °C.

`Cl.OCC(O)CNc1cc(-c2ccccc2)nc2ccccc12` (racemic) registered a melting point of 225 to 227 °C.

`CC(O)CNc1cc(-c2ccccc2)nc2ccccc12.Cl` (racemic) registered a melting point of 251 to 253 °C.

`Cl.OCC(O)CNc1cc(CCc2ccccc2)nc2ccccc12` (racemic) yielded a melting point of 143 to 145 °C.

Compound `CC(C)NCC(O)COc1cc(-c2ccccc2)nc2ccccc12` (racemic) had a melting point of 109 to 111 °C.

On to `CNCC(O)COc1cc(-c2ccc(OC)cc2)nc2cc(C)ccc12` (racemic), for which the melting point lay in the range of 140 to 142 °C.

Compound `OCC(O)CNc1cc(-c2ccc3c(c2)CCO3)nc2ccccc12` (racemic) (as salt: hydrochloride) [Example 32, (RS)-3-[2-(2,3-Dihydro-benzofuran-5-yl)-quinolin-4-ylamino]-propane-1,2-diol hydrochloride] gave a melting point of 267 to 270 °C.

`Cc1ccc(-c2cc(NCC(O)CN)c3ccccc3n2)cc1.Cl` (racemic) [Example 2, (RS)-1-Amino-3-(2-p-tolyl-quinolin-4-ylamino)-propan-2-ol hydrochloride] registered a melting point of 264 to 272 °C.

`Cl.OCCNc1cc(-c2ccc3c(c2)CCCC3)nc2ccccc12` [Example 18, 2-[2-(5,6,7,8-Tetrahydro-naphthalen-2-yl)-quinolin-4-ylamino]-ethanol hydrochloride] returned a melting point of 250 to 252 °C.

In the case of `COc1ccc(-c2cc(N(C)CCO)c3ccccc3n2)cc1.Cl` [Example 46, 2-{[2-(4-Methoxy-phenyl)-quinolin-4-yl]-methyl-amino}-ethanol hydrochloride], the melting point fell in the range of 201 to 204 °C.

In another data set the target is T1, NMDA receptor (Rattus norvegicus, UniProt P35439+Q00960).
T1 construct: Membranes were prepared by homogenization of the whole brain minus cerebellum and medulla oblongata; from tissue; host or cells: rat whole brain minus cerebellum and medulla oblongata, membranes
T1 sequence (Q00960 27-1482, other chains not shown): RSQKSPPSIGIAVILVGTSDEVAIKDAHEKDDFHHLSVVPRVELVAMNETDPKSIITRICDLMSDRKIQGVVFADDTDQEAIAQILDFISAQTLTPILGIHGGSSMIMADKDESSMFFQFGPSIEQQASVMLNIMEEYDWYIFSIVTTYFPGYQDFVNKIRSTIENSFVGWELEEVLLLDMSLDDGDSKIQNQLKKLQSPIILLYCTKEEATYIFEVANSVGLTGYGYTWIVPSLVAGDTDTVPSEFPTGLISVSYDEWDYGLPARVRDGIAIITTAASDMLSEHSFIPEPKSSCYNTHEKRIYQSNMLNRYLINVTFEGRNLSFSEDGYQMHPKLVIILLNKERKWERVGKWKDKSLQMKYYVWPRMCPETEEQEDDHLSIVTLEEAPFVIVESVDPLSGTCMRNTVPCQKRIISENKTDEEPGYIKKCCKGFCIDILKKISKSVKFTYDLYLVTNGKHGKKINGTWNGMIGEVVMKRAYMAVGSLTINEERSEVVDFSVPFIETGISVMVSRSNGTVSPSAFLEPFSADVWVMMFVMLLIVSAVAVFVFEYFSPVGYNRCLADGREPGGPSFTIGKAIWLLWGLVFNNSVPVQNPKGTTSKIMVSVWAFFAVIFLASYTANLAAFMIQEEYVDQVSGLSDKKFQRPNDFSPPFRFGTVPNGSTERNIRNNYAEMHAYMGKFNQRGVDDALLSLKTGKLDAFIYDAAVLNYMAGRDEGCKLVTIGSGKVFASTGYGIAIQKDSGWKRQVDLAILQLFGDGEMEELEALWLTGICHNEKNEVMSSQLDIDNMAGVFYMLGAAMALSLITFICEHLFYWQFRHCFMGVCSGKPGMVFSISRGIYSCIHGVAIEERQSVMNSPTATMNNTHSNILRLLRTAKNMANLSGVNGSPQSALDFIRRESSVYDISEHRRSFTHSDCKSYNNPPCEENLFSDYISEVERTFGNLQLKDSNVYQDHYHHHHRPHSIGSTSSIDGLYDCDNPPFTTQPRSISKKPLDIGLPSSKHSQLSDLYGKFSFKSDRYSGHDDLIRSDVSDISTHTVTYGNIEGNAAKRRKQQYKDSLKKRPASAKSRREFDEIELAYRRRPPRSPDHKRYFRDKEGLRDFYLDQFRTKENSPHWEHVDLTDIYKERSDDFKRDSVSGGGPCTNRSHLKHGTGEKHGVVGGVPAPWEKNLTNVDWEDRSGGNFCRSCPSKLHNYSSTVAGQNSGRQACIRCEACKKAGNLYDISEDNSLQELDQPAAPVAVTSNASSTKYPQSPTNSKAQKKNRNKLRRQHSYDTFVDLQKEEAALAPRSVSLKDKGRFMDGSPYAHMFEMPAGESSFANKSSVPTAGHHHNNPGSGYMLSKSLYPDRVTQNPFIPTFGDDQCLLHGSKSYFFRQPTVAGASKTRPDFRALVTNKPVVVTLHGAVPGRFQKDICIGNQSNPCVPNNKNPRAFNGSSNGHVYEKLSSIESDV
The data set can be described thus: 3H-Ro 25-6981 binding (displacement, rat brain membranes). To be noted: displacement of 5 nM 3H-Ro 25-6981; rat whole brain minus cerebellum and medulla oblongata membranes; 2 hours at 4° C., pH 7.4. Here is the method:
3H-Ro 25-6981 binding (Ro 25-6981 is [R-(R*,S*)]-a-(4-Hydroxy-phenyl)-b-methyl-4-(phenyl-methyl)-1-piperidine propanol)
Male Füllinsdorf albino rats weighing between 150-200 g were used. Membranes were prepared by homogenization of the whole brain minus cerebellum and medulla oblongata with a Polytron (10 000 rpm, 30 seconds), in 25 volumes of a cold Tris-HCl 50 mM, EDTA 10 mM, pH 7.1 buffer. The homogenate was centrifuged at 48.000 g for 10 minutes at 4° C. The pellet was resuspended using the Polytron in the same volume of buffer and the homogenate was incubated at 37° C. for 10 minutes. After centrifugation the pellet was homogenized in the same buffer and frozen at −80° C. for at least 16 hours but not more than 10 days. For the binding assay the homogenate was thawed at 37° C., centrifuged and the pellet was washed three times as above in a Tris-HCl 5 mM, pH 7.4 cold buffer. The final pellet was resuspended in the same buffer and used at a final concentration of […].
3H-Ro 25-6981 binding experiments were performed using a Tris-HCl 50 mM, pH 7.4 buffer. For displacement experiments 5 nM of 3H-Ro 25-6981 were used and non specific binding was measured using 10 mM of tetrahydroisoquinoline and usually it accounts for 10% of the total. The incubation time was 2 hours at 4° C. and the assay was stopped by filtration on Whatmann GF/B glass fiber filters (Unifilter-96, Packard, Zürich, Switzerland). The filters were washed 5 times with cold buffer. The radioactivity on the filter was counted on a Packard Top-count microplate scintillation counter after addition of […] of microscint 40 (Canberra Packard S.A., Zürich, Switzerland).
The effects of compounds were measured using a minimum of 8 concentrations and repeated at least once. The pooled normalized values were analyzed using a non-linear regression calculation program which provide IC50) with their relative upper and lower 95% confidence limits (RS1, BBN, USA).
With `Cc1ccc(-c2cc(NCC(O)CN)c3ccccc3n2)cc1.Cl` (racemic) [Example 2, (RS)-1-Amino-3-(2-p-tolyl-quinolin-4-ylamino)-propan-2-ol hydrochloride], the IC50 came to 20 nM.

`NCC(O)CNc1cc(N2CCc3ccccc3C2)nc2ccccc12` (racemic) [Example 10, (RS)-1-Amino-3-[2-(3,4-dihydro-1H-isoquinolin-2-yl)-quinolin-4-ylamino]-propan-2-ol hydrochloride] registered a half-maximal inhibitory concentration (IC50) of 30 nM.

As for `OCC(O)CNc1cc(-c2ccc3c(c2)CCO3)nc2ccccc12` (racemic) [Example 32, (RS)-3-[2-(2,3-Dihydro-benzofuran-5-yl)-quinolin-4-ylamino]-propane-1,2-diol hydrochloride], the IC50 came to 66 nM.

Consider `CNCC(O)CNc1cc(-c2ccc(OC)cc2)nc2ccccc12` (racemic) [Example 77, (RS)-1-[2-(4-Methoxy-phenyl)-quinolin-4-ylamino]-3-methylamino-propan-2-ol hydrochloride], for which the IC50 amounted to 58 nM.

`Cl.OCCNc1cc(-c2ccc3c(c2)CCCC3)nc2ccccc12` [Example 18, 2-[2-(5,6,7,8-Tetrahydro-naphthalen-2-yl)-quinolin-4-ylamino]-ethanol hydrochloride] gave an IC50 of 40 nM.

As to `COc1ccc(-c2cc(N(C)CCO)c3ccccc3n2)cc1.Cl` [Example 46, 2-{[2-(4-Methoxy-phenyl)-quinolin-4-yl]-methyl-amino}-ethanol hydrochloride], the concentration for half-maximal inhibition (IC50) was 130 nM.

Usually melting point stands for the temperature of the solid-liquid transition. As a reminder, the IC50 is the concentration that gives 50% inhibition. A high value points to a need for much substance.
